Test results reported in the supplement of paper PMC11997997.

Legend:
[1] = system: murine bone marrow-derived macrophages; experiment: area under cytotoxicity dose-response curve (AUC (% cytotoxicity x dose, relative)); higher = more cytotoxic; conditions: duration: 6 days; dose range: 0.13-80 uM, 8 points
Summary of the method: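 Cytotoxicity is given as the area under the dose–response curve, computed in GraphPad Prism version 10. Primary murine bone marrow-derived macrophages in opaque 384-well plates received an 8-point, 2.5-fold dilution series (final 80–0.13 μM) for 6 days at 37 °C in 5% CO2. Viability was measured by Promega's CellTiter-Glo luminescence assay, with percent cytotoxicity normalised to vehicle and positive control wells.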

[2] = system: Mycobacterium tuberculosis CDC1551 (intracellular, in murine BMDM); experiment: area under intracellular growth-inhibition dose-response curve (AUC (% inhibition x dose, relative)); higher = more potent; conditions: duration: 6 days; dose range: 0.13-80 uM, 8 points
Summary of the method: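 Luciferase-expressing M. tuberculosis CDC1551 was used at multiplicity of infection 1 for 1 h to infect primary murine bone marrow-derived macrophages in 384-well opaque plates, 24 h after seeding. Treatment followed for 6 days with an 8-dose, 2.5-fold series at final concentrations of 80–0.13 μM. GraphPad Prism was used to calculate the area under the growth-inhibition dose–response curve from Bright-Glo luciferin readings normalised to a reference drug control and the lowest-concentration wells.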

Structure (SMILES) | area under cytotoxicity dose-response curve [1] | area under intracellular growth-inhibition dose-response curve [2]
O=C(NC1C2CC3CC(C2)CC1C3)c1ccc2c(c1)OCO2 (stereo not drawn) | 123 | 226
Cc1nc(N/N=C\c2ccc3c(c2)OCO3)sc1C | 150 | 252
C=C[C@]1(C)C[C@@H](OC(=O)CSCCN(CC)CC)[C@]2(C)C(C)CC[C@]3(CCC(=O)[C@H]32)[C@@H](C)[C@@H]1O (stereo partly drawn) | < 0 | 231
C/C=C/C=N\NC(=O)c1ccncc1 | 9.36 | 259
NC(=S)NN=C1Cc2cccc3cccc1c23 | 58.9 | 263
COc1ccc(C)cc1-n1nnnc1SC(C)C(=O)NC1CCCC1 (stereo not drawn) | < 0 | 44.8
CCC(=O)NC(=S)Nc1ccc(NC(=O)COc2ccccc2)cc1 | 69.1 | 201
O=C(N/N=C/c1cn[nH]c1-c1ccc(F)cc1)c1ccncc1 | 215 | 226
c1ccc(Cc2nnc(-c3ccccc3)o2)cc1 | 39.3 | 264
O=C(/C=C/c1ccc2c(c1)OCO2)N1CCCCC1 | 15.2 | 155
N#Cc1ccc(OCC(=O)N2CCN(S(=O)(=O)c3ccc(Cl)s3)CC2)cc1 | 65.3 | 31.9
CC(=O)Nc1ccc(Sc2ccc([N+](=O)[O-])o2)cc1 | 21.3 | 108
CCC(=O)N1CCN(c2ccc(NC(=O)c3ccc([N+](=O)[O-])o3)cc2)CC1 | 3.32 | 47.9
CC1CC(C)CN(C(=O)C2CCC(CNc3c(N4CCCCC4)c(=O)c3=O)CC2)C1 (stereo not drawn) | 0.615 | 125
CN(C)c1ccc(Nc2ncnc3ccc(Br)cc23)cc1 | 33.3 | 121
CN1CCN2c3ccccc3Cc3ccccc3C2C1.Cl (stereo not drawn) | < 0 | 118
CCC(=O)NC(=S)Nc1ccc(NC(=O)c2ccc(OC)cc2)cc1 | < 0 | 266
O=C(CCC1CCCCC1)NCc1cccs1 | 42.9 | 187
O=[N+]([O-])c1ccc(N2CCCCC2)s1 | 14.5 | 165
Cc1ccccc1OCCC(=O)NNC(=O)c1ccccc1F | 17.3 | 106
CCCc1cc(C(=O)NC2CCCCC2)no1 | 108 | 232
O=C(Nc1ccc(C(=O)Oc2ccccc2)c(O)c1)c1ccccc1 | 93.1 | 210

Structure (SMILES) | area under cytotoxicity dose-response curve [1] | area under intracellular growth-inhibition dose-response curve [2]
Cc1cccc(Cn2ccc(NC(=O)c3ccc4c(c3)OCO4)n2)c1 | 85.5 | 133
Nc1c2c(nc3ccn(Cc4ccccc4)c(=O)c13)CCC2 | 39.1 | 196
CCOC(=O)c1ccccc1NC(=O)c1c(F)c(F)c(F)c(F)c1F | < 0 | 183
C/C(CC(=O)Nc1ccc(C)c(Cl)c1)=N\NC(=O)c1ccncc1 | < 0 | 272
CC[N+](CC)(CC)CCCCOc1ccc2c(c1)C(=O)c1cc(OCCCC[N+](CC)(CC)CC)ccc1-2.[I-] | 56.8 | 92.4
NNC(=O)c1ccncc1 | < 0 | 272
O=Cc1ccc2oc3nc4n(c(=O)c3c(=O)c2c1)CCCS4 | 95.3 | 111
O=C(NCc1ccccc1F)c1ccc2c(c1)OCO2 | 87.2 | 79.5
COC(=O)c1cccc(/C=N/NC(N)=S)c1O | 32.1 | 144
CCN1/C(=C/c2ccc3cc(C)ccc3[n+]2C)Sc2ccc3sccc3c21.[I-] | 180 | 149
Cc1ccc(-c2cc(-c3ccccc3)cc(-c3ccccc3)[n+]2-c2ccccc2)cc1.[O-][Cl+3]([O-])([O-])[O-] | 23.7 | 91.8
O=C(NCc1ccc2c(c1)OCO2)c1ccc(Br)o1 | 76.4 | 174
CCOC(=O)c1oc2nc(C(C)C)c3c(c2c1N)CC(C)(C)OC3 | 80.3 | 124
c1csc(Cc2nn3c(-c4[nH]nc5c4CCC5)nnc3s2)c1 | 44.4 | 251
CC(NC(=O)c1cccc(Cl)c1)C1CC2CCC1C2 (stereo not drawn) | 48.5 | 225
CCOc1ccc(-c2cnc(NCc3cccc4ccccc34)n2CCOC)cc1.O=C(O)C(=O)O | 23.1 | 66.2
Cc1ccc(NC(=O)NC2CCCCCCC2)cc1C | 89 | 230
Cc1nnc(SCC(=O)NNC(=O)COc2ccc(Br)cc2)n1C | 1.25 | 68.9
COc1ccc2nc(C)cc(N/N=C/c3ccccc3)c2c1 | 97.6 | 136
COc1c(N2CCN(C(=S)Nc3ccccc3F)C(C)C2)c(F)cc2c(=O)c(C(=O)O)cn(C3CC3)c12 (stereo not drawn) | < 0 | 275
COC(=O)Cc1ccc(NC(=S)Nc2ccc(N3CCOCC3)cc2)cc1 | 50.5 | 241
CCOc1ccc(C(=O)Nc2ccc(NC(=S)NC(=O)CC)cc2)cc1Cl | < 0 | 179

Structure (SMILES) | area under cytotoxicity dose-response curve [1] | area under intracellular growth-inhibition dose-response curve [2]
CC(NC(=O)c1cccs1)c1ccc(Cl)cc1 (stereo not drawn) | 2.59 | 251
CC(=O)c1c(C)[n+]([O-])c2cc(C)ccc2[n+]1[O-] | 31.7 | 95.3
Cl.c1ccc(-c2nc(NCCCn3ccnc3)c3oc4ccccc4c3n2)cc1 | 34.7 | 172
O=C(N/N=C/c1cccc2ccccc12)c1ccncc1 | 67.8 | 262
CCCn1c(-c2cccs2)nc2ccccc21 | < 0 | 103
Cc1cc(NS(=O)(=O)c2ccc(NC(=S)Nc3ccc(Cl)cc3C)cc2)no1 | 7.59 | 102
COc1ccc(-c2[nH]ncc2/C=N/NC(=O)c2ccncc2)c(OC)c1 | < 0 | 218
COc1ccc(OC)c2nc3c(cc12)CCC3 | 23.1 | 211
COc1ccc(CNc2ncc(-c3ccc(Br)cc3)n2C)cc1OC.O=C(O)C(=O)O | 42.6 | 113
Cc1nc(SCC(=O)NC2CCCCC2)nc(O)c1C | 17.5 | 30.2
Nc1c2c(nc3sc4c(c13)CCCC4)CCCC2 | 77.7 | 125
Cc1ccc2ccc3ccc(C)nc3c2n1 | 160 | 29.4
C/C(=N/NC(=O)c1ccncc1)c1ccc2c(c1)OCO2 | 13.8 | 257
Cc1ccc(C)c2sc(N3CCN(C(=O)c4ccc([N+](=O)[O-])o4)CC3)nc12 | 33.4 | 3.34
CN(CC(=O)Nc1ccc(OC(F)(F)F)cc1)C(=O)c1ccc(N2CCCC2=O)cc1 | 36.3 | 27.6
CCCCCNC(=O)CCc1ccccc1 | < 0 | 130
NS(=O)(=O)c1cccc(NC(=O)COC(=O)c2ccc(S(=O)(=O)N3CCOCC3)cc2)c1 | 10 | 112
CCN(CC)CCNc1nc(-c2ccc(OC)cc2)c(-c2ccc(OC)cc2)s1 | 3.78 | 203
Cc1ccc(C)c(N2CCN(CCCNC(=O)Cn3cccc3C(=O)c3ccccc3C)CC2)c1 | 3.91 | 84.4
CC(C)(C)C(=O)/C=C/Nc1ccccc1O | 5.21 | 88
